How the values were obtained:
full length human TREX1 = full length human TREX1 (Homo sapiens (Human), UniProt Q9NSU2); test: TREX1 Biochemical Assay (fluorescence assay measuring degradation of dsDNA substrate); conditions: 150 pM TREX1, 60 nM dsDNA substrate, 25 minutes at room temperature
Procedure: Degradation of the dsDNA liberates free fluorophore to produce a fluorescent signal. Specifically, 7.5 μL of N-terminally His-Tev tagged full length human TREX1 (expressed in E. coli and purified in house) in reaction buffer (50 mM Tris (pH 7.4), 150 mM NaCl, 2 mM DTT, 0.1 mg/mL BSA, 0.01% (v/v) Tween-20 and 100 mM MgCl2 were added to a 384-well Black ProxiPlate Plus (Perkin Elmer) which already contained compound (150 nL) at varying concentrations as a 10 point dose-response in DMSO. To this was added 7.5 μL of dsDNA substrate (Strand A: 5′ TEX615/GCT AGG CAG 3′; Strand B: 5′ CTG CCT AGC/IAbRQSp (Integrated DNA Technologies)) in reaction buffer. Final concentrations were 150 pM TREX1, 60 nM dsDNA substrate in reaction buffer with 1.0% DMSO (v/v). After 25 minutes at room temperature, reactions were quenched by the addition of 5 μL of stop buffer (same as reaction buffer plus 200 mM EDTA). Final concentrations in the quenched reaction were 112.5 pM TREX1, 45 nM DNA and 50 mM EDTA in a volume of 20 μL. After a 5-minute incubation at room temperature, plates were read in a laser sourced Envision (Perkin-Elmer), measuring fluorescence at 615 nm following excitation w/570 nm light. IC50 values were calculated by comparing the measured fluorescence at 615 nm ratio relative to control wells pre-quenched w/stop buffer (100% inhibition) and no inhibitor (0% inhibition) controls as using non-linear least square four parameter fits and either Genedata or GraphPad Prism (GraphPad Software, Inc.).

[1] = biological target: human TREX2 (residues M44-A279) (Homo sapiens (Human), UniProt Q9BQ50); test: TREX2 Biochemical Assay (fluorescence assay measuring degradation of dsDNA substrate); conditions: 2.5 nM TREX2, 60 nM dsDNA substrate, 25 minutes at room temperature
Procedure: Degradation of the dsDNA liberates free fluorophore to produce a fluorescent signal. Specifically, 7.5 μL of N-terminally His-Tev tagged human TREX2 (residues M44-A279, expressed in E. coli and purified in house) in reaction buffer (50 mM Tris (pH 7.4), 150 mM NaCl, 2 mM DTT, 0.1 mg/mL BSA, 0.01% (v/v) Tween-20 and 100 mM MgCl2) was added to a 384-well Black ProxiPlate Plus (Perkin Elmer) which already contained compound (150 nL) at varying concentrations as a 10 point dose-response in DMSO. To this was added 7.5 μL of dsDNA substrate (Strand A: 5′ TEX615/GCT AGG CAG 3′; Strand B: 5′ CTG CCT AGC/IAbRQSp (IDT)) in reaction buffer. Final concentrations were 2.5 nM TREX2, 60 nM dsDNA substrate in reaction buffer with 1.0% DMSO (v/v). After 25 minutes at room temperature, reactions were quenched by the addition of 5 μL of stop buffer (same as reaction buffer plus 200 mM EDTA). Final concentrations in the quenched reaction mixture were […] TREX2, 45 nM DNA and 50 mM EDTA in a volume of 20 μL. After a 5-minute incubation at room temperature, plates were read in a laser sourced Envision (Perkin-Elmer), measuring fluorescence at 615 nm following excitation w/570 nm light. IC50 values were calculated by comparing the measured fluorescence at 615 nm ratio relative to control wells pre-quenched w/stop buffer (100% inhibition) and no inhibitor (0% inhibition) controls as using non-linear least square four parameter fits and either Genedata or GraphPad Prism (GraphPad Software, Inc.).

Chain of full length human TREX1 (Q9NSU2 whole entry): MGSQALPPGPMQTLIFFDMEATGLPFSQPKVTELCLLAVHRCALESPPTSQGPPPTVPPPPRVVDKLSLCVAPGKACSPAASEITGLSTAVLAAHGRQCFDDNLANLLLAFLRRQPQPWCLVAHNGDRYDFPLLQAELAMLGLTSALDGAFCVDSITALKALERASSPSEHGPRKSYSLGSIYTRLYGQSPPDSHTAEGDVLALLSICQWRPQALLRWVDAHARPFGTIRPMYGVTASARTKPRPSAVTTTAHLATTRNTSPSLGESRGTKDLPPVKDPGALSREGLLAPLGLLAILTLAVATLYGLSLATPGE
Chain of human TREX2 (residues M44-A279) (Q9BQ50 whole entry, the tested form may be a part): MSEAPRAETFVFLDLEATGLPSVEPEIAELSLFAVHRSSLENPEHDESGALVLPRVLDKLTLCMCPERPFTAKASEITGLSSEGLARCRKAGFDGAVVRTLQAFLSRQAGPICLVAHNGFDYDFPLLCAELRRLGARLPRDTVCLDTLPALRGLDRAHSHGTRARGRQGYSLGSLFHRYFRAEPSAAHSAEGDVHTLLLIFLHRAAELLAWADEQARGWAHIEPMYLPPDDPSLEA

SMILES | IC50 (full length human TREX1) [nM] | IC50 [1] [nM]
Cn1c(C2(Cc3ccccc3)CCCN(C(=O)OC(C)(C)C)C2)nc(C(=O)Nc2cnoc2)c(O)c1=O (stereo not drawn) [Example 50, tert-butyl 3-benzyl-3-(5-hydroxy-4-(isoxazol-4-ylcarbamoyl)-1-methyl-6-oxo-1,6-dihydropyrimidin-2-yl)piperidine-1-carboxylate] | 100 to 1000 | 10000 to 100000
Cc1cc(C(=O)O)cc(-c2nc(C(=O)Nc3cnoc3)c(O)c(=O)n2C)c1 [Example 51, 3-(5-hydroxy-4-(isoxazol-4-ylcarbamoyl)-1-methyl-6-oxo-1,6-dihydropyrimidin-2-yl)-5-methylbenzoic acid] | 100 to 1000 | 1000 to 10000
Cn1c(C2(COCc3ccccc3)CCCN(C(=O)OC(C)(C)C)C2)nc(C(=O)Nc2cnoc2)c(O)c1=O (stereo not drawn) [Example 52, tert-butyl 3-((benzyloxy)methyl)-3-(5-hydroxy-4-(isoxazol-4-ylcarbamoyl)-1-methyl-6-oxo-1,6-dihydropyrimidin-2-yl)piperidine-1-carboxylate] | 100 to 1000 | 1000 to 10000
COC(=O)c1cc(C)cc(-c2nc(C(=O)Nc3cnoc3)c(O)c(=O)n2C)c1 [Example 53, methyl 3-(5-hydroxy-4-(isoxazol-4-ylcarbamoyl)-1-methyl-6-oxo-1,6-dihydropyrimidin-2-yl)-5-methylbenzoate] | 100 to 1000 | 1000 to 10000
Cc1cc(C(=O)NC2CCN(C)CC2)cc(-c2nc(C(=O)Nc3cnoc3)c(O)c(=O)n2C)c1 [Example 54, 5-hydroxy-N-(isoxazol-4-yl)-1-methyl-2-(3-methyl-5-((1-methylpiperidin-4-yl)carbamoyl)phenyl)-6-oxo-1,6-dihydropyrimidine-4-carboxamide] | 100 to 1000 | 10000 to 100000
CNC(=O)c1cc(C)cc(-c2nc(C(=O)Nc3cnoc3)c(O)c(=O)n2C)c1 [Example 55, 5-hydroxy-N-(isoxazol-4-yl)-1-methyl-2-(3-methyl-5-(methylcarbamoyl)phenyl)-6-oxo-1,6-dihydropyrimidine-4-carboxamide] | < 100 | 1000 to 10000
Cn1c(C2CCCN(C(=O)C3CCC(=O)NC3)C2)nc(C(=O)Nc2cnoc2)c(O)c1=O (stereo not drawn) [Example 56, 5-hydroxy-N-(isoxazol-4-yl)-1-methyl-6-oxo-2-(1-(6-oxopiperidine-3-carbonyl)piperidin-3-yl)-1,6-dihydropyrimidine-4-carboxamide] | 100 to 1000 | 10000 to 100000
Cn1c(C2CCCN(S(=O)(=O)c3ccccc3)C2)nc(C(=O)Nc2cnoc2)c(O)c1=O (stereo not drawn) [Example 57, 5-hydroxy-N-(isoxazol-4-yl)-1-methyl-6-oxo-2-(1-(phenylsulfonyl)piperidin-3-yl)-1,6-dihydropyrimidine-4-carboxamide] | 100 to 1000 | 10000 to 100000
Cn1c(C2CCCN(C(=O)c3cncnc3)C2)nc(C(=O)Nc2cnoc2)c(O)c1=O (stereo not drawn) [Example 58, 5-hydroxy-N-(isoxazol-4-yl)-1-methyl-6-oxo-2-(1-(pyrimidine-5-carbonyl)piperidin-3-yl)-1,6-dihydropyrimidine-4-carboxamide] | 100 to 1000 | 1000 to 10000
Cn1c(C2CCCN(C(=O)c3ccc(Cl)cc3)C2)nc(C(=O)Nc2cnoc2)c(O)c1=O (stereo not drawn) [Example 59, 2-(1-(4-chlorobenzoyl)piperidin-3-yl)-5-hydroxy-N-(isoxazol-4-yl)-1-methyl-6-oxo-1,6-dihydropyrimidine-4-carboxamide] | 100 to 1000 | 1000 to 10000
CN(C)CCCC(=O)N1CCCC(c2nc(C(=O)Nc3cnoc3)c(O)c(=O)n2C)C1 (stereo not drawn) [Example 60, 2-(1-(4-(dimethylamino)butanoyl)piperidin-3-yl)-5-hydroxy-N-(isoxazol-4-yl)-1-methyl-6-oxo-1,6-dihydropyrimidine-4-carboxamide] | 1000 to 10000 | 10000 to 100000
Cn1c(C2CCCN(C(=O)Cc3ccccc3)C2)nc(C(=O)Nc2cnoc2)c(O)c1=O (stereo not drawn) [Example 61, 5-hydroxy-N-(isoxazol-4-yl)-1-methyl-6-oxo-2-(1-(2-phenylacetyl)piperidin-3-yl)-1,6-dihydropyrimidine-4-carboxamide] | 100 to 1000 | 1000 to 10000

Reference: patent publication US12172990B2 (Constellation Pharmaceuticals, Inc., priority 2018, dated 2024)
